Experimental data published in patent US20220017468A1, “ISOQUINOLINE COMPOUNDS AND THEIR USE IN TREATING AhR IMBALANCE” (Dermavant Sciences GmbH, priority 2020, published 2022).

Key:
[1] = skin binding in human skin homogenate; format: in vitro ADME; conditions: 25, 50 and 100 ng/mL
[2] = metabolic stability in liver microsomes, rat; format: in vitro ADME
[3] = system: dinitrofluorobenzene (DNFB)-challenged mouse; test: DNFB mouse model; format: in vivo; conditions: 0.3% in ethanolic formulation, twice daily
Text: DNFB is a small chemical hapten that induces a delayed-type hypersensitivity reaction with some similarity to human atopic dermatitis. […] This may indicate reduced exposure to the compound in the second study, although additional data would be required to understand whether this discrepancy results from different dosing strategies (q.d. vs b.i.d.), limitations of cream formulation 1, or another reason.
Healthy female CD1 mice (Crl:CD1(ICR)) were shaved on the abdomen and the nape of the neck under a 3 to 5% isoflurane anesthesia.
After body weight measurement, animals were allocated to study groups, according to the treatment table below. The study was divided in two arms, separated by 1 week, in order to accommodate for the in life monitoring of scratching monitoring. Half of the animals from each group (6 mice) were allocated in arm 1 and arm 2 respectively.
For each topical treatment, 100 mg of cream or 100 μL of liquid formulation were applied on the mouse nape of the neck skin using a solvent pipette. When creams were used, they were spread with a finger and allowed to penetrate the skin by massage until complete absorption. […]
Mice were culled on Day 17 under a 3 to 5% isoflurane anesthesia, 4 hours after the last topical treatment, and 48 hours after the last DNFB or acetone/olive oil challenge. […] Epidermal (FIG. 6C1) and dermal thickness (FIG. 6C2) were measured.

[4] = estimation of human plasma concentration following topical administration; conditions: for Estimated AUC24 h / Estimated Css: 70 kg
Procedure: The plasma clearance (CLhuman) was estimated from the in vitro and preclinical pharmacokinetic studies.
An estimated skin flux prediction was conducted, assuming a 2-hour lag time and receiving fluid levels obtained every two hours at the LLOQ level for 16 hours, leading to a calculated flux of 0.048 ng/cm^2/h.
Healthy skin is an effective protective barrier to most xenobiotics; therefore the relevance of a flux value derived from the ex vivo skin penetration assay, which uses healthy human skin from abdominoplasty surgeries, may not translate to what is observed following application onto unhealthy skin. […] Calculation of human systemic exposure with a 100-fold increase in flux has also been performed to account for the worst case estimation. A 10% body surface area (1800 cm^2) in human was used for this estimation. Therefore, for the purpose of safety margin estimation and considering the conditions explained herein, the estimated Css,human is 0.34 ng/mL with the corresponding AUCss, 24 h is 8.2 ng*h/mL. In clinical practice, topical treatment for atopical dermatitis can be up to 50% BSA (9000 cm2) and therefore corresponding estimated Css,human and AUCss, 24 h with 10-fold increase in flux is 0.17 ng/mL and 4.1 ng*h/mL.

[5] = flux 0.48 (10-fold increase), dose area 9000 cm^2, clearance 6 ml/min/kg
[6] = flux 4.8 (100-fold increase), dose area 1800 cm^2, clearance 6 ml/min/kg

With `CC(C)c1c(O)cc(-c2cc3ccccc3cn2)cc1O` as the compound, how does the fraction unbound ([1]; human dermis homogenate) read?
Its fraction unbound is 0.341 ± 0.115.

What about the fraction unbound ([1]; human epidermis homogenate) of the same compound?
The fraction unbound was 0.513 ± 0.011.

And the fraction unbound ([1]; whole human skin homogenate)?
Its fraction unbound is 0.219 ± 0.0072.

And the “CLint, mic” value ([2]; rat liver microsomes, 0.5 μM)?
The value was 6.21 mL/min/g liver.

And the CLint scaled at 0.5 μM ([2]; rat liver microsomes, 0.5 μM, read-out: Scaled CLint, mic)?
Its CLint scaled at 0.5 μM is 224 mL/min/kg.

What about the half-life at 0.5 μM ([2]; rat, microsomes) of the same compound?
The half-life at 0.5 μM was 10.3 min.

What about the “reduction in dermal thickness” value [3] of the same compound?
The value was 34%.

And the “reduction in epidermal thickness” value [3]?
The value was 20%.

What about the “lowest predicted human clearance” value ([4]; allometric scaling with plasma protein binding correction) of the same compound?
The value was 6 mL/min/kg.

And the “Topical Skin Flux (calculated)” value ([4]; assuming 2-hour lag time and receiving fluid levels at the LLOQ for 16 hours)?
The value was 0.048 ng/cm^2/h.

What about the “Estimated AUC24 h” value [4, 5] of the same compound?
Its value is 4.1 ng·h/mL.

And the “Estimated Css” value [4, 5]?
Its value is 0.17 ng/mL.

And the “Estimated AUC24 h” value [4, 6]?
The value was 8.2 ng·h/mL.

What about the “Estimated Css” value [4, 6] of the same compound?
Its value is 0.34 ng/mL.
